# Measurements published in US20240423969A1, “SYNERGISTIC DRUG COMBINATIONS TO TREAT CANCER” (Mayo Foundation for Medical Education and Research, priority 2023, published 2024).
# Tested on: HCC cell lines (HLE, HLF, and PLC/PRF5)
# Assay: Cell proliferation assay, three HCC cell lines
# Format: cell-based
# Details: Homo sapiens, PLC-PRF-5, single agent, range over HLE, 96 hours, read-out: IC50 (concentration that inhibits proliferation of 50% cells)
# Description: HCC cell lines (3×10^5 cells) were suspended in a 10 mL culture medium and seeded onto 96-well black plates at 100 μL per well (Corning Incorporated, Corning, NY, USA). The next day, SSI-4, cabozantinib, and/or lenvatinib were added in concentrations ranging from 120 μM to 0.1 nM and incubated with cells for 96 hours. After incubation times, the media was discarded, and cells were washed with 100 μL PBS, dried, and placed at −80° C. for at least 30 minutes. Next, a CyQUANT® Cell Proliferation Assay (Thermo Fisher, Waltham, MA) was used for quantifying cells and for assessing cell proliferation and cytotoxicity following manufacturer protocol. For 3D cell culture, the cell viability was analyzed using CellTiter-Glo® 3D Cell Viability Assay (Promega, Madison, WI), and relative luminescence units (RLU) were measured. Based, on the fluorescence or luminescence values, the percentage of cell proliferation inhibition and half-maximal inhibitory concentration (IC50) was determined using the GraphPad Prism (Dotmatics, San Diego, CA). The resulting combination index (CI) data based on the median effect principle proposed by Chou and Talalay was generated using CalcuSyn Software Version 2.0 (Biosoft). At least 3 independent experiments were performed.
# Three HCC cell lines (HLE, HLF, and PLC/PRF5) were tested and the concentration that inhibits proliferation of 50% cells (IC50) was determined. […]
row,IC50 [µM],Compound
1,11 to 24,COc1cc2nccc(Oc3ccc(NC(=O)NC4CC4)c(Cl)c3)c2cc1C(N)=O [lenvatinib]
2,19 to 72,COc1cc2nccc(Oc3ccc(NC(=O)C4(C(=O)Nc5ccc(F)cc5)CC4)cc3)c2cc1OC [cabozantinib]
3,0.001 to 0.019,"CNC(=O)c1ccnc(NC(=O)N2CCC(Oc3ccccc3Cl)CC2)c1 [SSI-4, 2-{[4-(2-Chlorophenoxy)piperidine-1-carbonyl]amino}-N-methylpyridine-4-carboxamide]"
